# Read-outs that look alike come from different tables or passages of the source.
# Experiments:
# rat SUR2A = rat SUR2A (Rattus norvegicus, UniProt Q63563); test: In vitro binding affinity to rodent KATP channels: SUR2A ([3H]P1075 / [3H]glibenclamide displacement, COS cell membranes)
# Description: Therefore, two strategies can be used to detect binding to the sulfonylurea site on SUR2A.
# Membranes from COS-cells transiently expressing rat SUR2A were incubated in the presence of the radioligands with increasing concentrations of test compounds as described above. […] For each test compound four displacement curves were measured (displacement of [^3H]P1075 from the rat isoform of the wild type receptor and displacement of [^3H]glibenclamide from the rat isoform of SUR2AY1205S). Per curve 9-15 distinct concentrations were tested covering the relevant range. All measurements were repeated at least 5 times in independent experiments.
# (§1) [^3H]glibenclamide (specific activity 51 Ci mmol^−1) was obtained from NEN (Dreieich, Germany). Where needed, stock solutions were prepared in dimethylsulfoxide with a final solvent concentration in the media below 1%.
# (§2) SUR- or Kir6.x isoforms were used either subcloned in the pcDNA (hamster SUR1, mouse Kir6.2) or pCMV vector (rat SUR2A, SUR2B).
# (§3) For transfection, the cells were incubated 4 hours in a Tris-buffered salt solution containing DNA (5-10 μg/ml) plus DEAE-dextran (1 mg/ml), 2 min in HEPES-buffered salt solution plus dimethylsulfoxide (10%) and 4 hours in DMEM-HG plus chloroquine (100 μM). Cells were then returned to DMEM-HG plus 10% FCS. […] For binding experiments, resuspended membranes (final protein concentration 5-50 μg/ml) were incubated in “Tris-buffer” (50 mM, pH 7.4) containing either [^3H]glibenclamide (final concentration 0.3 nM or 3 nM and nonspecific binding defined by 100 nM or 1 μM glibenclamide for SUR1 or SUR2Y1205S-isoforms, respectively) or [^3H]P1075 (final concentration 3 nM, nonspecific binding defined by 100 μM pinacidil) and increasing concentrations of the test compounds. The free Mg^2+ concentration were kept close to 0.7 mM. […] Incubations were carried out for 1 h at room temperature and were terminated by rapid filtration through Whatman GF/B filters.
# (§4) The inhibition constant (Ki value) of the test substances was calculated from the respective IC50 value, and was stated as the negative logarithmic value thereof (pKi).
# hamster SUR1 = molecular target: T1, hamster SUR1 (Cricetus cricetus, UniProt Q09427); test: In vitro binding affinity to rodent KATP channels: SUR1 ([3H]glibenclamide displacement, COS cell membranes)
# T1 construct: expressed in transfected cells; host or cells: COS-1 cells, transient (pcDNA vector)
# Description: 1. In Vitro Binding Affinity of the Test Compounds to Rodent KATP Channels
# Competitive binding experiments were performed to characterize the affinity of the test compounds for the binding sites for sulfonylureas and KATP channel openers (KCOS) on hamster SUR1. To assess the affinity for the sulfonylurea site, membranes from COS-cells transiently expressing hamster SUR1 were incubated in the presence of [^3H]glibenclamide with increasing concentrations of test compounds. […] For each test compound four displacement curves were measured (+/−MgATP from the human and hamster isoform). Per curve 9-15 distinct concentrations were tested covering the relevant range. All measurements were repeated at least 5 times in independent experiments.
# as §1, §2, §3, §4
# [1] = hamster SUR1 in COS cell membranes, read-out: Affinity to SUR 1 (converted)
# [2] = rat SUR2A in COS cell membranes
# rat SUR2A, sequence (Q63563 whole entry): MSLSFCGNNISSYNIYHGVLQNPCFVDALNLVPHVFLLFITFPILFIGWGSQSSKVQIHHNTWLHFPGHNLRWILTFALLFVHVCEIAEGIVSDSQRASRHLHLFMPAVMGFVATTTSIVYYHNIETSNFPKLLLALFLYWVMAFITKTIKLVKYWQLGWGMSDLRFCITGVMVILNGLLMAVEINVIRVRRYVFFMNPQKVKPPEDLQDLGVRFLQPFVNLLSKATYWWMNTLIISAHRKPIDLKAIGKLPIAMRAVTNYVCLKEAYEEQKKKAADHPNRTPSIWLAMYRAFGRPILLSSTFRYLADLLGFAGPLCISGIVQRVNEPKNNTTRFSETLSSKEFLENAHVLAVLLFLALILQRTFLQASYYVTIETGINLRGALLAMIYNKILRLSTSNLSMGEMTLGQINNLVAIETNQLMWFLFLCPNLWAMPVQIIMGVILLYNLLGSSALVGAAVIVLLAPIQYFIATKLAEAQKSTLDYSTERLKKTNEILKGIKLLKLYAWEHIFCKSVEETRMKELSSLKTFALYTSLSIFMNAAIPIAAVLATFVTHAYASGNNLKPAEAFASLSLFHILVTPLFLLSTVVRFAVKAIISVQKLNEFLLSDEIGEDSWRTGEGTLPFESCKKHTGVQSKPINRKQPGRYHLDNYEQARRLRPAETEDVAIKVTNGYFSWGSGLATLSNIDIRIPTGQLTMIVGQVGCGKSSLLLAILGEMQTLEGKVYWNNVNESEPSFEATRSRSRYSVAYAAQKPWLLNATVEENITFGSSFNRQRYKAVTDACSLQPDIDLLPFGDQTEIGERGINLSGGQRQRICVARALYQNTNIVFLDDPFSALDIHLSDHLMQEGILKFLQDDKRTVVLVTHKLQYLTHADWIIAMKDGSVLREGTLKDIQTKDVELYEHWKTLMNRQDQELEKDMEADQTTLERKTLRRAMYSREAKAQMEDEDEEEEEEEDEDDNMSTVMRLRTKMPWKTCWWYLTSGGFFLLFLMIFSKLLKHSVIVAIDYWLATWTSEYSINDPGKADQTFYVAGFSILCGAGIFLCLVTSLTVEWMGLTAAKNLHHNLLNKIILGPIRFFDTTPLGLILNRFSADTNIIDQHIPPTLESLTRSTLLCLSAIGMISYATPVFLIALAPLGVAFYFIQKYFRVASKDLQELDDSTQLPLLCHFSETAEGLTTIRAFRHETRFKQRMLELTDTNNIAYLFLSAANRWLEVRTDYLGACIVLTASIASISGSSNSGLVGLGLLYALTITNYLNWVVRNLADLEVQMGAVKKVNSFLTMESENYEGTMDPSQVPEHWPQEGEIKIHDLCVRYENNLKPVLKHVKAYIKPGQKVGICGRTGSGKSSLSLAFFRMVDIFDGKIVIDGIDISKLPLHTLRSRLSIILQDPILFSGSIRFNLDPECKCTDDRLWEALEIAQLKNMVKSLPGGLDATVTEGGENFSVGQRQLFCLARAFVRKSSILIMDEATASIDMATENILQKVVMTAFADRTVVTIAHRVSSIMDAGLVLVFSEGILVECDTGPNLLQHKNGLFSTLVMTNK
# T1 sequence (Q09427 whole entry): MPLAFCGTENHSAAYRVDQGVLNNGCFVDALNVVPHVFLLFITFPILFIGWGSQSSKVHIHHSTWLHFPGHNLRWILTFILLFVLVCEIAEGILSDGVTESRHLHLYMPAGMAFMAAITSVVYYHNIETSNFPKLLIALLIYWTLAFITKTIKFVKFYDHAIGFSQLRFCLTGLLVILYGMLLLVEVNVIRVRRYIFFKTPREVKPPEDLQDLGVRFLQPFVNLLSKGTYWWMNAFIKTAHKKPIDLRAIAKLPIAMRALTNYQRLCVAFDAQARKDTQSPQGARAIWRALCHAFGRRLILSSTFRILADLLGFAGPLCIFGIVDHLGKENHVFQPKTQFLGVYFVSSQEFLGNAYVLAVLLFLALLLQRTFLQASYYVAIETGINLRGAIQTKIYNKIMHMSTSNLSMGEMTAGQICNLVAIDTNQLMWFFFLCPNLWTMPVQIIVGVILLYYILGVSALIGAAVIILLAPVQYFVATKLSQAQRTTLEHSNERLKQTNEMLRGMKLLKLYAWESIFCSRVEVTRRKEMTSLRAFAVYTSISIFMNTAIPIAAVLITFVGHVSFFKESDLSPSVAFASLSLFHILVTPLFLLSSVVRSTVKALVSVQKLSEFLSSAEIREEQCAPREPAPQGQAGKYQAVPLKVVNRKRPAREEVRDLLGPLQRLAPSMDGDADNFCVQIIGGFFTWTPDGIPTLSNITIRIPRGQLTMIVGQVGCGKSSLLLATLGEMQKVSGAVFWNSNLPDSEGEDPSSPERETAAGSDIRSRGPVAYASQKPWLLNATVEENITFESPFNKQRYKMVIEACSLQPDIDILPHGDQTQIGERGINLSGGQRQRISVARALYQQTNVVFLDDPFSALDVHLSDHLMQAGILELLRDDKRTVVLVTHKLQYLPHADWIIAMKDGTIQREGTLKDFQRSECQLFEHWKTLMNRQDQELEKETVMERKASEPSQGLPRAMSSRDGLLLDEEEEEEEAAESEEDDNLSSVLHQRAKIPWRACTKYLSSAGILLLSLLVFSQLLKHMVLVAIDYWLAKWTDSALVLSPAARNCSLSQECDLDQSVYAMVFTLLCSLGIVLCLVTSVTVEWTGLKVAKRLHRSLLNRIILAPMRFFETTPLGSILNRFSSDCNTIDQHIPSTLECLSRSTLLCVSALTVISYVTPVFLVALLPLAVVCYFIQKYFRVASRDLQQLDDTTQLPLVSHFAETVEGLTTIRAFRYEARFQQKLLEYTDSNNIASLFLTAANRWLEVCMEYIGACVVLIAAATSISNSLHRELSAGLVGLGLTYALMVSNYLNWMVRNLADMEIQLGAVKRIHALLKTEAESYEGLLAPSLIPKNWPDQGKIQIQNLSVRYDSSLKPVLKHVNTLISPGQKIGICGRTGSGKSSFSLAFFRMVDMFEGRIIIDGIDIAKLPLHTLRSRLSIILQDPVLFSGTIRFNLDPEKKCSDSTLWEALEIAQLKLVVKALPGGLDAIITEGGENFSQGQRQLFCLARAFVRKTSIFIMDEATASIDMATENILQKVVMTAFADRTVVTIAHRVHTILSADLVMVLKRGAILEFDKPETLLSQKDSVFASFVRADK
Structure (SMILES),pKi (rat SUR2A),Ki (hamster SUR1; [1]) [nM],pKi (rat SUR2A; [2]),Ki (hamster SUR1) [nM]
CNC(=NS(=O)(=O)c1ccc(Cl)cc1)N1CC(c2cccnc2)C(c2ccc(Cl)cc2)=N1 (stereo not shown),5.4,2510,–,–
Cn1c(C(=O)NC2CCCCC2)nc(-c2ccc(Cl)cc2Cl)c1-c1ccc(Cl)cc1,–,100000,4.9,–
O=S(=O)(N=C(NCC1CCNCC1)N1CC(c2ccccc2)C(c2ccc(Cl)cc2)=N1)c1ccc(Cl)cc1 (stereo not shown),4.9,631,–,–
O=S(=O)(N=C(NCC1CC1)N1CC(c2ccccc2)C(c2ccc(Cl)cc2)=N1)N1CCOCC1 (stereo not shown),5.7,1000,–,–
"CCCCCCC(C)(C)c1ccc([C@@H]2C[C@H](O)CC[C@@H]2CCCO)c(O)c1 (stereo in doubt) [CP55940-entantiomer, 5-(1,1-Dimethyl-heptyl)-2-[5-hydroxy-2-(3-hydroxy-propyl)-cyclohexyl]-phenol, reference compound]",–,5010,–,–
"CCCCCCC(C)(C)c1cc(OC)c(C2C=C(CO)[C@H]3C[C@@H]2C3(C)C)c(OC)c1 (stereo in doubt) [HU308, {4-[4-(1,1-Dimethyl-heptyl)-2,6-dimethoxy-phenyl]-6,6-dimethyl-bicyclo[3.1.1]hept-2-en-2-yl}-methanol, reference compound]",–,–,–,398
"CCc1c(C(=O)NN2CCCCC2)nc(-c2ccc(Cl)cc2Cl)n1-c1ccc(Br)cc1 [1-(4-Bromo-phenyl)-2-(2,4-dichloro-phenyl)-5-ethyl-1H-imidazol-4-carboxylic acid piperidin-1-ylamide]",5.3,3980,–,–
"CCCCCNC(=O)c1nc(-c2ccc(Cl)cc2Cl)n(-c2ccc(Br)cc2)c1CC [1-(4-Bromo-phenyl)-2-(2,4-dichloro-phenyl)-5-ethyl-1H-imidazole-4-carboxylic acid pentylamide]",–,794,5.6,–
"O=C(NN1CCCCC1)c1nc(-c2ccc(Cl)cc2Cl)n(-c2ccc(Br)cc2)c1Cl [1-(4-Bromo-phenyl)-5-chloro-2-(2,4-dichloro-phenyl)-1H-imidazole-4-carboxylic acid piperidin-1-ylamide]",5.5,3980,–,–
"O=C(NN1CCCCC1)c1nc(-c2ccc(Cl)cc2Cl)n(-c2ccc(Cl)cc2)c1CC(F)(F)F [1-(4-Chloro-phenyl)-2-(2,4-dichloro-phenyl)-5-(2,2,2-trifluoro-ethyl)-1H-imidazole-4-carboxylic acid piperidin-1-ylamide]",5.7,15800,–,–
"CCSc1c(C(=O)NN2CCCCC2)nc(-c2ccc(Cl)cc2Cl)n1-c1ccc(Cl)cc1 [1-(4-Chloro-phenyl)-2-(2,4-dichloro-phenyl)-5-ethylsulfanyl-1H-imidazole-4-carboxylic acid piperidin-1-ylamide]",5.3,7940,–,–
"C[S+]([O-])c1c(C(=O)NN2CCCCC2)nc(-c2ccc(Cl)cc2Cl)n1-c1ccc(Cl)cc1 (stereo not shown) [1-(4-Chloro-phenyl)-2-(2,4-dichloro-phenyl)-5-methanesulfinyl-1H-imidazole-4-carboxylic acid piperidin-1-ylamide]",–,100000,4.9,–
"CS(=O)(=O)c1c(C(=O)NN2CCCCC2)nc(-c2ccc(Cl)cc2Cl)n1-c1ccc(Cl)cc1 [1-(4-Chloro-phenyl)-2-(2,4-dichloro-phenyl)-5-methanesulfonyl-1H-imidazole-4-carboxylic acid piperidin-1-ylamide]",5.0,100000,–,–
"Cc1c(C(=O)NC2CCC(O)CC2)nc(-c2ccc(Cl)cc2Cl)n1-c1ccc(Cl)cc1 (stereo not shown) [1-(4-Chloro-phenyl)-2-(2,4-dichloro-phenyl)-5-methyl-1H-imidazole-4-carboxylic acid (4-hydroxy-cyclo-hexyl)-amide]",5.0,100000,–,–
"CCCCCc1nc(-c2ccc(Cl)cc2Cl)n(-c2ccc(Cl)cc2)c1C [1-(4-Chloro-phenyl)-2-(2,4-dichloro-phenyl)-5-methyl-4-pentyl-1H-imidazole]",–,1580,5.3,–
"O=C(NN1CCCCC1)c1nc(-c2ccc(Cl)cc2Cl)n(-c2ccc(Cl)cc2)c1CN1CCCC1 [1-(4-Chloro-phenyl)-2-(2,4-dichloro-phenyl)-5-pyrrolidin-1-ylmethyl-1H-imidazole-4-carboxylic acid piperidin-1-ylamide]",–,100000,4.6,–
"O=C(NN1CCCCC1)c1nc(-c2ccc(Cl)cc2Cl)n(-c2ccc(Cl)cc2)n1 [1-(4-Chloro-phenyl)-5-(2,4-dichloro-phenyl)-1H-[1,2,4]triazole-3-carboxylic acid piperidin-1-yl-amide]",5.0,10000,–,–
"O=C(NN1CCCCC1)C1=NN(c2ccc(Cl)cc2)C(c2ccccc2)C1 (stereo not shown) [1-(4-Chloro-phenyl)-5-phenyl-4,5-dihydro-1H-pyrazole-3-carboxylic acid piperidin-1-ylamide]",5.1,100000,–,–
"CS(=O)(=O)C(=C1CN(C(c2ccc(Cl)cc2)c2ccc(Cl)cc2)C1)c1cc(F)cc(F)c1 [1-[Bis-(4-chloro-phenyl)-methyl]-3-[(3,5-difluoro-phenyl)-methanesulfonyl-methylene]-azetidine, reference compound]",5.1,5010,–,–
"NC(=O)C1CCN(C(=NS(=O)(=O)c2ccc(Cl)cc2)N2CC(c3ccccc3)C(c3ccc(Cl)cc3)=N2)CC1 (stereo not shown) [1-{(4-Chloro-benzene-sulfonylimino)-[3-(4-chloro-phenyl)-4-phenyl-4,5-dihydro-pyrazol-1-yl]-methyl}-piperidine-4-carboxylic acid amide]",5.2,3160,–,–
"O=C(NN1CCCCC1)c1cn(-c2ccc(C(F)(F)F)cc2)c(-c2ccc(Cl)cc2Cl)n1 [2-(2,4-Dichloro-phenyl)-1-(4-trifluoromethyl-phenyl)-1H-imidazole-4-carboxylic acid piperidin-1-ylamide]",5.3,2510,–,–
O=C(NN1CCCCC1)c1cn(-c2ccc(C(F)(F)F)cc2)c(-c2ccccc2Cl)n1 [2-(2-Chloro-phenyl)-1-(4-trifluoromethyl-phenyl)-1H-imidazole-4-carboxylic acid piperidin-1-ylamide],5.7,1000,–,–
"CN1CCCC1CN/C(=N\S(=O)(=O)c1ccc(Cl)cc1)N1CC(c2ccccc2)C(c2ccc(Cl)cc2)=N1 (stereo not shown) [4-Chloro-N-{[3-(4-chloro-phenyl)-4-phenyl-4,5-dihydro-pyrazol-1-yl]-[(1-methyl-pyrrolidin-2-ylmethyl)-amino]-methylene}-benzenesulfonamide]",5.1,–,–,–
"CN/C(=N\S(=O)(=O)c1ccc(Cl)cc1)N1C[C@@H](c2ccccc2)C(c2ccc(Cl)cc2)=N1 [4-Chloro-N-{[3-(4-chloro-phenyl)-4-phenyl-4,5-dihydro-pyrazol-1-yl]-methylamino-methylene}-benzenesulfonamide]",–,1000,–,–
"CCCCCCC(C)(C)c1cc(O)c2c(c1)OC(C)(C)[C@@H]1CC=C(CO)CC21 (stereo partly shown) [HU-210, 3-(1,1-Dimethyl-heptyl)-9-hydroxymethyl-6,6-dimethyl-6a,7,10,10a-tetra hydro-6H-enzo[c]chromen-1-ol, reference compound]",–,794,–,–
"CCCCCOc1c(OC)ccc2cc(C(=O)NCc3ccc4c(c3)OCO4)c(=O)[nH]c12 [JTE-907, 7-Methoxy-2-oxo-8-pentyloxy-1,2-di-hydro-quinoline-3-carboxylic acid (benzo[1,3]dioxol-5-ylmethyl)-amide, reference compound]",–,794,–,–
"Cc1c(NC(=O)c2ccccc2)nc(-c2ccc(Cl)cc2Cl)n1-c1ccc(Cl)cc1 [N-[1-(4-Chloro-phenyl)-2-(2,4-dichloro-phenyl)-5-methyl-1H-imidazol-4-yl]-benzamide]",–,2000,–,–
"CNC(=NS(=O)(=O)N1CCCCC1)N1C[C@H](c2ccccc2)C(c2ccc(Cl)cc2)=N1 [Piperidine-1-sulfonic acid [3-(4-chloro-phenyl)-4-phenyl-4,5-dihydro-pyrazol-1-yl]-methylamino-methyleneamide]",–,1580,–,–
"Cc1ccc(Cn2nc(C(=O)N[C@@H]3C(C)(C)[C@@H]4CC[C@@]3(C)C4)cc2-c2ccc(Cl)c(C)c2)cc1 [SR 144528, reference compound]",–,126,–,–
